Assay [1] has as its target T1, recombinant METTL3/METTL14 complex (Homo sapiens, UniProt Q86U44).
T1 construct: purchased Active Motif 311970; host or cells: Sf9 cells
The assay can be described thus: METTL3/14 Scintillation Proximity Assay (SPA), RNA methyltransferase activity. In kind it is biochemical. To be noted: 5.31 nM METTL3/14 complex, 250 nM RNA substrate, 1 μM 3H-SAM, 90 min; for compounds marked * best of the two separated forms. For orientation: Scintillation proximity formats need no separation of bound from free tracer.

In a further assay the test system is Caov-3 cells. Description: Caov-3 cellular viability assay (ATP-Lite, 72 h). It counts as cell-based. To be noted: Homo sapiens, ATP-Lite luminescence, % viability relative to DMSO. The method in brief:
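10000 cells/well treated 72 h at 37 °C, 5% CO2, in RPMI-1640 with 10% FBS and 0.1% DMSO final. Viability by ATP-Lite One Step luminescence. Expressed as % of DMSO control, with IC50 from each compound's concentration-response curve.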

Another assay relates to Kasumi-1 cells. The assay can be described thus: Kasumi-1 cellular viability assay (ATP-Lite, 72 h). In kind it is cell-based. The following applies: Homo sapiens, ATP-Lite luminescence, % viability relative to DMSO. The method in brief: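 Kasumi-1 AML cells, 15000/well in RPMI-1640 with 10% FBS, were exposed to compound titrations (0.1% final DMSO) for 72 h at 37 °C, 5% CO2. ATP-Lite One Step luminescence gave % viability versus DMSO control, and IC50 came from the concentration-response.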

Experimental findings from patent US20250002475A1 (EPICS THERAPEUTICS, priority 2023, published 2025) are described below.

T1 sequence (Q86U44 whole entry): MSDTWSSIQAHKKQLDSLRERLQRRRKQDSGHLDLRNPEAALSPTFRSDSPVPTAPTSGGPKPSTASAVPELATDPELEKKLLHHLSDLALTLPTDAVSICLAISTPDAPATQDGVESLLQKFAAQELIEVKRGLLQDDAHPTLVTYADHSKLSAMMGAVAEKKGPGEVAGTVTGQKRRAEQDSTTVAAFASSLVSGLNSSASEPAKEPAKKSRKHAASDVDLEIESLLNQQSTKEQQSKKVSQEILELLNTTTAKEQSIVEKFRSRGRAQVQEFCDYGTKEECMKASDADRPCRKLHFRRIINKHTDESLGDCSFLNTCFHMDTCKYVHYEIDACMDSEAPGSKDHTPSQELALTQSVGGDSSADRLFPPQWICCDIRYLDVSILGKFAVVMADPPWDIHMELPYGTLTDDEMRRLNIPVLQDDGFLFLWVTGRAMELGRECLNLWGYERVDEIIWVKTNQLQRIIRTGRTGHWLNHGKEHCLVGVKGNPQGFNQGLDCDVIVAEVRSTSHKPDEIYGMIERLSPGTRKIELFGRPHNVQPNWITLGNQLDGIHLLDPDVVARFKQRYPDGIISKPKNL
T1 sequence (Q9HCE5 whole entry partner): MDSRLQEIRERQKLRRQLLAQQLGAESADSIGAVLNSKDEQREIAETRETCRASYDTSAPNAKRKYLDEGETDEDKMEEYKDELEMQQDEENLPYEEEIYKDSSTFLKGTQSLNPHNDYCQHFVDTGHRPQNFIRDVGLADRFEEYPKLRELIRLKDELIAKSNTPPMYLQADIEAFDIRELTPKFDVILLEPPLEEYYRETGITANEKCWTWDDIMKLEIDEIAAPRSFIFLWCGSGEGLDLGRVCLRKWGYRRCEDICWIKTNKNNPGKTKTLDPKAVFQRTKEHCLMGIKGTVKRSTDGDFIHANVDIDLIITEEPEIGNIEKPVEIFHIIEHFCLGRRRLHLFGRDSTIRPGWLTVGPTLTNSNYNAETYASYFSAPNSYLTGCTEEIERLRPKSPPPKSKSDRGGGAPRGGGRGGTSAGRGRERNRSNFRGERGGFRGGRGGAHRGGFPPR

Regarding `CC(n1cnc(-c2cncc(N3CCCC3)c2)c1)n1ccc(N2CCC[C@@H](NCC3CC3)C2)cc1=O` (mixture of isomers) [Compound 252, 4-((R)-3-((cyclopropylmethyl)amino)piperidin-1-yl)-1-(1-(4-(5-(pyrrolidin-1-yl)pyridin-3-yl)-1H-imidazol-1-yl)ethyl)pyridin-2(1H)-one], the values for the 50% inhibitory concentration (IC50) (in assay [1]; with Caov-3 cells; with Kasumi-1 cells) were not above 50 nM, not above 500 nM and not above 500 nM, respectively.
For the compound `O=C(Nc1cc(=O)n2ccccc2n1)C1(c2ccc(N3CCC[C@@H](NC4CCC4)C3)cn2)COC1` [Compound 327, (R)-3-(5-(3-(cyclobutylamino)piperidin-1-yl)pyridin-2-yl)-N-(4-oxo-4H-pyrido[1,2-a]pyrimidin-2-yl)oxetane-3-carboxamide], the concentration for half-maximal inhibition (IC50) in assay [1] was not above 50 nM; in the assay with Caov-3 cells it was 500 to 5000 nM; in the assay with Kasumi-1 cells it was 500 to 5000 nM.
Regarding `COc1cncc(-c2cn(C3(c4ccc(N5CCC[C@@H](NCC6CCC6)C5)cc4)COC3)nn2)c1` [Compound 134, (R)-N-(cyclobutylmethyl)-1-(4-(3-(4-(5-methoxypyridin-3-yl)-1H-1,2,3-triazol-1-yl)oxetan-3-yl)phenyl)piperidin-3-amine], the 50% inhibitory concentration (IC50) in assay [1] was not above 50 nM; in the assay with Caov-3 cells it was not above 500 nM; in the assay with Kasumi-1 cells it was not above 500 nM.
As for `O=C(Nc1cncc(N2CCCC2)n1)C1(c2ccc(N3CCC[C@@H](NCC4CC4)C3)nc2)COC1` [Compound 324, (R)-3-(6-(3-((cyclopropylmethyl)amino)piperidin-1-yl)pyridin-3-yl)-N-(6-(pyrrolidin-1-yl)pyrazin-2-yl)oxetane-3-carboxamide], the IC50 in assay [1] is not above 50 nM; in the assay on Caov-3 cells, not above 500 nM; with Kasumi-1 cells, not above 500 nM.
`COc1cncc(-c2cn(Cc3ccc(N4CCC[C@@H](NCC5CCC5)C4)cc3)nn2)c1` [Compound 068, (R)-N-(cyclobutylmethyl)-1-(4-((4-(5-methoxypyridin-3-yl)-1H-1,2,3-triazol-1-yl)methyl)phenyl) piperidin-3-amine]: the half-inhibitory concentration (IC50) in assay [1] is not above 50 nM; in the assay on Caov-3 cells, 500 to 5000 nM; in the assay with Kasumi-1 cells, 500 to 5000 nM.
For the compound `CC(C)(c1ccc(N2CCC[C@@H](NCC3CC3)C2)cn1)c1nnc(-c2cncc(N3CCCC3)n2)s1` [Compound 364, (R)-N-(cyclopropylmethyl)-1-(6-(2-(5-(6-(pyrrolidin-1-yl)pyrazin-2-yl)-1,3,4-thiadiazol-2-yl)propan-2-yl)pyridin-3-yl)piperidin-3-amine], the results for the half-inhibitory concentration (IC50) (in assay [1]; in the assay with Caov-3 cells; in the assay with Kasumi-1 cells) were not above 50 nM, not above 500 nM and not above 500 nM, respectively.
On to `COc1cncc(-c2ncn(C(C)n3ccc(N4CCC[C@@H](NCC5CCC5)C4)cc3=O)n2)c1` (single isomer, unassigned) [Compound 135], for which the IC50 is not above 50 nM in assay [1], 500 to 5000 nM in the assay with Caov-3 cells and 500 to 5000 nM in the assay on Kasumi-1 cells.
With `CC(n1nnc(-c2cncc(N(C)C)c2)n1)n1ccc(N2CCC[C@@H](NCC3CCC3)C2)cc1=O` (single isomer, unassigned) [Compound 179], the IC50 in assay [1] was not above 50 nM; with Caov-3 cells, not above 500 nM; in the assay on Kasumi-1 cells it was not above 500 nM.
With `c1nnc(-c2cn(C3(c4ccc(N5CCC[C@@H](NCC6CC6)C5)cn4)COC3)nn2)cc1N1CCCC1` [Compound 202, (R)-N-(cyclopropylmethyl)-1-(6-(3-(4-(5-(pyrrolidin-1-yl)pyridazin-3-yl)-1H-1,2,3-triazol-1-yl)oxetan-3-yl)pyridin-3-yl)piperidin-3-amine], the IC50 in assay [1] is not above 50 nM; in the assay on Caov-3 cells, not above 500 nM; with Kasumi-1 cells, not above 500 nM.
With `CC(c1cnn(-c2cncc(N3CCCC3)n2)c1)n1ccc(N2CCC[C@@H](NCC3CC3)C2)cc1=O` (single isomer, unassigned) [Compound 220], the results for the IC50 (in assay [1]; with Caov-3 cells; with Kasumi-1 cells) were not above 50 nM, not above 500 nM and not above 500 nM, respectively.

What is called IC50 is the concentration that gives 50% inhibition.
